Assay results from US7015309B1 (The Wistar Institute of Anatomy and Biology, priority 1999, dated 2006).
Where two headings read alike, the source gives them in different places. Non-standard residues stand in square brackets, D forms with d. Residues, ends and D or L forms follow the SMILES beside them. No end group written: not given here. ξ: configuration not given here. Ac6c = NC1(C(=O)O)CCCCC1; ξDap = NCC(N)C(=O)O

Experiments:
Micrococcus luteus = conditions: read-out: IC50 in μM against Micrococcus luteus; 30° C., 24 hours; for Peptide 22 original assay (a)
Description: (§1) Growth inhibition assays were performed using the peptides of Example 1 and the Gram positive microorganisms Micrococcus luteus and Bacillus megaterium, and the Gram negative microorganisms, Escherichia coli D22, Agrobacterium tumefaciens, and Salmonella typhimurium. Anti-bacterial assays were performed in sterilized 96-well plates (Nunc F96 microtiter plates) with a final volume of 100 μl as described in Bulet (1996), cited above. Briefly, 90 μl of a suspension of a midlogarithmic phase bacterial culture at an initial 600 nm UV absorbence of 0.001 in Luria-Bertani rich nutrient medium was added to 10 μl of serially diluted peptides in sterilized water. The final peptide concentrations ranged between 0.15 and 80 μM. The plates were incubated at 30° C. for 24 hours with gentle shaking, and the growth inhibition was measured by recording the increase of the UV absorbence at 600 nm on an SLT Labinstruments 400 ATC microplate reader. The experiments were conducted over a 7-month period.

Escherichia coli D22 = conditions: read-out: IC50 in μM against Escherichia coli D22; 30° C., 24 hours; for Peptide 22 original assay (a)
Description: as §1

[1] = tested on: Agrobacterium tumefaciens; conditions: read-out: IC50 in μM against Agrobacterium tumefaciens; 30° C., 24 hours; for Peptide 22 original assay (a)
Description: as §1

Salmonella typhimurium = conditions: read-out: IC50 in μM against Salmonella typhimurium; 30° C., 24 hours; for Peptide 22 original assay (a)
Description: as §1

Bacillus megaterium = conditions: read-out: IC50 in μM against Bacillus megaterium; 30° C., 24 hours; for Peptide 22 original assay (a)
Description: as §1

sheep erythrocytes = assay: Hemolytic activity, release of hemoglobin; conditions: for Absorbence at 405 nm: one hour, 39° C.; for toxicity to sheep erythrocytes (in words): 256 μM concentration
Description: To determine whether native and modified pyrrhocoricin peptides were toxic to mammalian cells, several peptides from Example 1 above, a positive control, and a negative control were examined for hemolytic activity. Hemolytic activity was assayed with sheep erythrocytes suspended in Alsever's solution (BioWhittaker, Walkersville, Md.), and diluted with Dulbecco's phosphate-buffered saline, pH 7.2. Thirty μL of a 1% suspension of the red blood cells was incubated with agitation at 39° C. with 30 μL of 40 to 256 μM of each of the following peptides dissolved in phosphate buffered saline for one hour and centrifuged at 1000 g for five minutes. Fifty μL of the supernatant was collected and the release of hemoglobin was detected by measuring the ultraviolet absorbences of triplicate samples of the 40 μM or 256 μM test peptides and the control peptides at 405 nm.

[2] = In vivo toxicity control, uninfected mice; parameters: species or system mice of CD-1 strain; conditions: 50 mg/kg dose, intravenous
COS cells = assay: Direct killing of immortalized COS cells; type: cell-based
Excerpt: In another toxicity assay, COS cell survival was studied for pyrrhocoricin and cecropin B (Bachem Biosciences, King of Prussia, Pa.) as the positive control.

[3] = mouse serum, 45-minute digestion, MALDI-MS peak height
Description: (§2) Owing to the fact that the use of diluted serum increases peptide recovery as well as retards the reaction kinetics to a manageable rate, the experiments were conducted using 25% aqueous sera.
(§3) For serum stability studies, 10 μl of an aqueous peptide stock solution containing about 0.8 mg/ml peptide was added to 200 μl 25% aqueous pooled mouse or human serum (Sigma, St. Louis, Mo.), according to the process described in M. F. Powell et al, Pharmacol Res, 10: 1268–1273 (1993). The peptide-serum mixture was thermostated at 37° C. After 0 minutes, 45 minutes, 2 hours and 4 hours, three samples of each peptide were taken and precipitated by the addition of 40 μl 15% aqueous trichloroacetic acid. The samples were stored at 4° C. for 20 minutes and centrifuged. The peptides and some remaining serum proteins were recovered in the supernatant after the trichloroacetic acid precipitation. The supernatants were immediately frozen on dry-ice and 220 μl of each were analyzed on RP-HPLC. A mouse serum and two different batches of the same SIGMA catalog number of human sera (human 1, approximately 1 year old, and human 2, approximately 1 month old) were also used.
(§4) The lyophilized samples were redissolved in 0.1 aqueous TFA and submitted for matrix assisted laser desorption/ionization (MALDI-MS).
(§5) The missing residues are indicated (e.g—C2 means that the C-terminal two residues are cleaved off). […] In Table 4, the relative amounts of the degradation products are estimated based on the MALDI-MS peak heights. 0=not detected; 1=very weak (below 5000), 2=weak (5–10000), 3=medium (10–15000), 4=strong (15000-uncleaved molecular ion at 25–30000), 5=very strong (above uncleaved molecular ion).

[4] = for Degradation product −C1, relative amount / Degradation product −C2, relative amount / Degradation product −C3, relative amount / Degradation product −C6, relative amount / Degradation product −N3, C2, relative amount / Degradation product −N3, relative amount / Degradation product −N5, C2, relative amount / Degradation product −N5, relative amount: 45-minute digestion
Description: as §2, §3, §4, §5

in vitro = conditions: mouse, 25% aqueous pooled mouse serum
Description: as §2, §3, §4, §5

[5] = native glycosylated drosocin; cited from earlier work
[6] = within a four-hour period; cited from earlier work
bacteria = conditions: cited from earlier work
[7] = within a four-hour period; cited from earlier work; remark: listed apart in the source
[8] = after 8 hours of digestion, all sera studied
Description: as §2, §3, §4

[9] = human 1 serum (approximately 1 year old)
[10] = human 2 serum (approximately 1 month old)

| Compound | Absorbence at 405 nm (sheep erythrocytes; 40 μM peptide) | toxicity to sheep erythrocytes (in words) (sheep erythrocytes) | Absorbence at 405 nm (sheep erythrocytes; 256 μM peptide) | toxicity of peptide alone (in words) [2] | Degradation product −C1, relative amount [3] | Degradation product −C2, relative amount [3] | Degradation product −C3, relative amount [3] | Degradation product −C6, relative amount [3] | Degradation product −N3, C2, relative amount [3] | Degradation product −N3, relative amount [3] | Degradation product −N5, C2, relative amount [3] | Degradation product −N5, relative amount [3] | Degradation product −C1, relative amount [4, 9] | Degradation product −C2, relative amount [4, 9] | Degradation product −C3, relative amount [4, 9] | Degradation product −C6, relative amount [4, 9] | Degradation product −N3, C2, relative amount [4, 9] | Degradation product −N3, relative amount [4, 9] | Degradation product −N5, C2, relative amount [4, 9] | Degradation product −N5, relative amount [4, 9] | also measured |
| --- | --- | --- | --- | --- | --- | --- | --- | --- | --- | --- | --- | --- | --- | --- | --- | --- | --- | --- | --- | --- | --- |
| VDKGSYLPRPTPPRPIYNRN-NH2 [Peptide 1] | 0.108 ± 0.015 | completely non-toxic | 0.0135 ± 0.005 | Neither Peptides 1 nor 21 [SEQ ID NOS: 6 and 22, respectively] alone showed any toxicity | 2 (2=weak (5–10000)) | 2 (2=weak (5–10000)) | 0 | 0 | 0 | 0 | 0 | 0 | 3 (3=medium (10–15000)) | 4 (4=strong (15000-uncleaved molecular ion at 25–30000)) | 3 (3=medium (10–15000)) | 1 (1=very weak (below 5000)) | 0 | 0 | 0 | 2 (2=weak (5–10000)) | IC50 (Micrococcus luteus): 10 µM; IC50 (Escherichia coli D22): < 0.075 µM; IC50 [1]: < 0.075 µM; IC50 (Salmonella typhimurium): 0.6 µM; IC50 (Bacillus megaterium): 5 µM; Cell Count after Treatment (COS cells; 5 μM peptide): 18 ± 4; Cell Count after Treatment (COS cells; 10 μM peptide): 12 ± 4; Cell Count after Treatment (COS cells; 50 μM peptide): 11 ± 1; effect on cell count and rate of proliferation (in words) (COS cells; up to 50 μM/mL concentration): did not change; Degradation product −C1, relative amount [4, 10]: 2 (2=weak (5–10000)); Degradation product −C2, relative amount [4, 10]: 2 (2=weak (5–10000)); Degradation product −C3, relative amount [4, 10]: 0; Degradation product −C6, relative amount [4, 10]: 0; Degradation product −N3, C2, relative amount [4, 10]: 0; Degradation product −N3, relative amount [4, 10]: 0; Degradation product −N5, C2, relative amount [4, 10]: 0; Degradation product −N5, relative amount [4, 10]: 0; remaining at 8 h (in vitro): 20% |
| GKPRPYSPRPTSHPRPIRV [drosocin] | – | – | – | – | – | – | – | – | – | – | – | – | – | – | – | – | – | – | – | – | anti-bacterial activity when injected into mice (in words) [5]: no anti-bacterial activity; degradation in diluted human serum (in words) [6]: completely degraded; time needed to kill bacteria in vitro (bacteria): 12 to 24 h; degradation in diluted mouse serum (in words) [7]: completely degraded |
| CC[C@H](C)[C@H](NC(=O)[C@@H]1CCCN1C(=O)[C@H](CCCNC(=N)N)NC(=O)[C@@H]1CCCN1C(=O)[C@@H]1CCCN1C(=O)[C@@H](NC(=O)[C@@H]1CCCN1C(=O)[C@H](CCCNC(=N)N)NC(=O)[C@@H]1CCCN1C(=O)[C@H](CC(C)C)NC(=O)[C@H](Cc1ccc(O)cc1)NC(=O)[C@H](CO)NC(=O)CNC(=O)[C@H](CCCCN)NC(=O)[C@H](CC(=O)O)NC(=O)C1(N)CCCCC1)[C@@H](C)O)C(=O)N[C@@H](Cc1ccc(O)cc1)C(=O)N[C@@H](CC(N)=O)C(=O)N[C@@H](CCCNC(=N)N)C(=O)NC(CNC(C)=O)C(N)=O (stereo partly drawn) [Peptide 21, 1-aminocyclo-hexane carboxylic acid (Chex)-Pyrrhocoricin-β-acetyl-2,3-diamino propionic amide [Dap(Ac)]] (H-[Ac6c]DKGSYLPRPTPPRPIYNR[ξDap](Ac)-NH2) | 0.110 ± 0.049 | completely non-toxic | 0.143 ± 0.006 | Neither Peptides 1 nor 21 [SEQ ID NOS: 6 and 22, respectively] alone showed any toxicity | 0 | 2 (2=weak (5–10000)) | 0 | 0 | 0 | 0 | 0 | 2 (2=weak (5–10000)) | 0 | 4 (4=strong (15000-uncleaved molecular ion at 25–30000)) | 2 (2=weak (5–10000)) | 0 | 0 | 0 | 1 (1=very weak (below 5000)) | 2 (2=weak (5–10000)) | Degradation product −C1, relative amount [4, 10]: 0; Degradation product −C2, relative amount [4, 10]: 4 (4=strong (15000-uncleaved molecular ion at 25–30000)); Degradation product −C3, relative amount [4, 10]: 0; Degradation product −C6, relative amount [4, 10]: 0; Degradation product −N3, C2, relative amount [4, 10]: 0; Degradation product −N3, relative amount [4, 10]: 0; Degradation product −N5, C2, relative amount [4, 10]: 1 (1=very weak (below 5000)); Degradation product −N5, relative amount [4, 10]: 2 (2=weak (5–10000)); resistance in human serum compared with Peptide 1 (in words) ([4]; human serum): generally more resistant than Peptide 1; peptide still present (in words) [8]: traces; remaining at 8 h (in vitro): 20% |
